Measured values published in article PMC6079455, “Discovery of Novel Caeridins from the Skin Secretion of the Australian White's Tree Frog, Litoria caerulea” (International Journal of Genomics, 2018).
Ends that are not written are not given here.

How the values were obtained:
[1] = test system: horse erythrocytes; test: Haemolytic test; format: cell-based; conditions: tested concentrations, horse red blood cells, 37°C, 2 h
Protocol: The haemolysis of Caeridins was tested on prepared defrinated horse red blood cells (TCS Biosciences Ltd., Buckingham, UK) by incubating equal volumes of peptide solutions with erythrocyte suspensions at 37°C for 2 H. Maximum haemolysis control was included by incubating equal volumes of 1% Triton X-100 (Sigma-Aldrich, St. Louis, MO, USA) with erythrocyte suspensions. Lysis of erythrocytes was detected by the measurement of supernatant absorbance at a wavelength of 550 nm using a Synergy HT plate reader (Biolise BioTek ELx808, Winooski, VT, USA). The level of haemolysis was as calculated as (3) Haemolysis %=A−A0/A1−A0×100%, where A represents the absorbance with peptide treatments, A0 represents the average absorbance in untreated erythrocytes, and A1 represents the average absorbance in the maximum haemolysis control (1% Triton X-100-treated).

[2] = test system: E. coli; test: Membrane permeability on E. coli (ONPG / β-galactosidase); format: cell-based, Escherichia coli; conditions: ONPG hydrolysis, absorbance 420 nm, 0-30 min, 37°C
Protocol: The membrane permeabilsation of E.coli was determined by measuring the release of β-galactosidase activity from E. coli into the culture medium with ONPG as the substrate. The log-phase E. coli was grown in MHB medium containing 2% lactose at 37°C, and the cells were pelleted. The cell pellets were suspended in 10 mM PBS (pH 7.4) containing 1.5 mM ONPG and diluted to 1 × 10^8 CFU/ml. Aliquots of cells were incubated with different concentrations of peptides at 37°C. Permeabilisation was measured at 420 nm every 2 min from 0 to 30 min, which reflects ONPG influx into the cells working as an indicator of the permeability of the tested peptides.

[3] = test system: human microvascular endothelial cell line HMEC-1; test: Membrane permeabilisation of HMEC-1 (LDH release); format: cell-based; conditions: 24 h; for cytotoxicity to HMEC-1 cells: 100 μM, LDH release; for membrane lysis (LDH release) of HMEC-1: 10^−7 M to 10^−4 M
Protocol: The membrane permeabilisation of the human microvascular endothelial cell line, HMEC-1, was evaluated using the Pierce LDH Cytotoxicity Assay Kit (Thermo Fisher Scientific, San Francisco, CA, USA). HMEC-1 cells were cultured in MCDB-131 medium (Life Technology, Paisley, UK) with 10% FBS, 10 ng/ml epidermal growth factor (EGF) (Life Technology, Paisley, UK), 10 mM L-glutamine (Life Technology, Paisley, UK), and 1% penicillin-streptomycin (Sigma-Aldrich, St. Louise, MO, USA), at 37°C under 5% CO2. Cells were seeded in a 96-well plate at 5000 cells per well and cultured overnight to 80% confluency. Then, the cells were treated with different peptide solutions of gradient concentrations from 10^−7 M to 10^−4 M for 24 h at 37°C, 5% CO2, and H2O-treated cells were made as the spontaneous LDH release control. Lysis buffer was added to cells and incubated for 45 min at 37°C, 5% CO2, to produce the lysis buffer-treated cells which were referred to as maximum LDH release control. Then 50 μl of each sample supernatant was transferred to a 96-well flat-bottom plate in triplicate wells, to which 50 μl of reaction mixture was added, incubated, and protected from light at room temperature for 30 min. After addition of 50 μl Stop Solution to each sample well and removal of bubbles present in sample wells, the absorbance at 490 nm and 680 nm was measured. The absorbance values at 680 nm were subtracted from the absorbance values at 490 nm before calculation of the level of LDH release (cytotoxicity). The level of LDH release was calculated as (2) LDH release %=L−L0/L1−L0×100%, where L refers to sample-treated LDH activity, L0 to spontaneous (H2O-treated) LDH activity, and L1 to maximum (lysis buffer-treated) LDH activity.
Data analysis was performed using one-way analysis of variance followed by Dunnett's multiple comparison tests with maximum LDH release control in GraphPad Prism (Version 6.0; GraphPad Software Inc., San Diego, CA, USA).

[4] = test system: S. aureus; test: Membrane permeability on S. aureus (SYTOX Green); format: cell-based, Staphylococcus aureus; conditions: 2 h; for membrane-permeabilising activity on S. aureus: up to 512 μM
Protocol: The cell membrane permeability of S. aureus was tested with SYTOX Green Nucleic Acid Stain (Life Technologies, Carlsbad, CA, USA). The log-phase S. aureus was pelleted and suspended in 5% TSB in 0.85% NaCl solution to achieve 1 × 10^8 CFU/ml cells which was then treated with peptide solutions at 37°C for 2 h. The maximum membrane-compromised S. aureus was produced by 70% isopropanol treatment. Subsequently, cells were mixed with 5 μM SYTOX Green stain and incubated in the dark for 10 min. The fluorescence was measured in a 37°C Synergy HT plate reader (Biolise BioTek ELx808, Winooski, VT, USA) at excitation and emission wavelengths of 480 nm and 528 nm, respectively. The membrane permeability was calculated as (1) Membrane permeability%=F−F0/F1−F0×100%, where F represents the processed fluorescence intensity with peptide treatments, F0 represents the processed fluorescence intensity of untreated S. aureus, and F1 represents the processed fluorescence intensity in the maximum membrane-compromised S. aureus (70% isopropanol-treated). The fluorescence intensities of background were subtracted prior to calculation.

[5] = test system: MRSA NCTC12493; test: Antimicrobial test (broth microdilution); format: cell-based, methicillin-resistant S. aureus; conditions: for MIC: MHB, 5 × 10^5 CFU/ml, 37°C overnight, 550 nm
Protocol: (§1) The antimicrobial activities were tested by the broth microdilution method and evaluated by the determination of MIC values against different tested microorganisms, the Gram-positive bacteria, S. aureus (NCTC 10788), E. faecalis (NCTC12697), and MRSA (NCTC 12493); the Gram-negative bacterium, E. coli (NCTC 10418); and the yeast, C. albicans (NCYC 1467). The microorganisms were cultured to their log phase in MHB and diluted to 5 × 10^5 CFU/ml then subsequently treated with peptide solutions of gradient concentrations. After incubation at 37°C overnight, the growth of microorganisms was detected at a wavelength of 550 nm using a Synergy HT plate reader (Biolise BioTek ELx808, Winooski, VT, USA). The MICs were determined as the lowest concentration of peptide where […].

[6] = test system: C. albicans NCYC1467; test: Antimicrobial test (broth microdilution); format: cell-based, Candida albicans; conditions: for MIC: MHB, 5 × 10^5 CFU/ml, 37°C overnight, 550 nm
Protocol: as §1

[7] = test system: E. faecalis NCTC12697; test: Antimicrobial test (broth microdilution); format: cell-based, Enterococcus faecalis; conditions: for MIC: MHB, 5 × 10^5 CFU/ml, 37°C overnight, 550 nm
Protocol: as §1

[8] = test system: rat ileum smooth muscle; test: Rat ileum smooth muscle test; conditions: organ bath, 37°C, n = 5
Protocol: (§2) Female Wistar rats (250–300 g) were euthanized by CO2 asphyxiation followed by cervical dislocation under appropriate Home Office (UK) animal licenses. Full urinary bladder and ileum were carefully removed from the abdomen, then placed in cold Kreb's solution (118 mM NaCl, 4.7 mM KCl, 25 mM NaHCO3, 1.15 mM NaH2PO4, 2.5 mM CaCl2, 1.1 mM MgCl2, and 5.6 mM glucose), equilibrated with a carbogen mixture (95% O2, 5% CO2). The prepared smooth muscles linked with transducers were placed in 2 ml capacity organ baths with Kreb's solution flowing through at 2 ml/min and maintained at 37°C with constant bubbling of carbogen gas mixture (95% O2, […]) and equilibrated for 1 h prior to analysis. Then the viability of these smooth muscle preparations was tested by 60 mM KCl. Caeridins were tested at sequential molar concentrations in the range from 10^−6 M to 10^−11 M. Dose-response curves were depicted for each Caeridin on individual smooth muscle preparations (n = 5). Changes in tension of the smooth muscle preparations were detected by pressure transducers connected to a PowerLab System (ADInstruments Pty Ltd.). Data were recorded and calculated to obtain the means of responses and standard error of means (SEM). The dose-response curve of each Caeridin was established using best-fit algorithms through the data analysis package provided by GraphPad Prism (Version 6.0; GraphPad Software Inc., San Diego, CA, USA), and the comparative EC50 value for each peptide was depicted.

[9] = test system: E. coli NCTC10418; test: Antimicrobial test (broth microdilution); format: cell-based, Escherichia coli; conditions: for MIC: MHB, 5 × 10^5 CFU/ml, 37°C overnight, 550 nm
Protocol: as §1

[10] = test system: S. aureus NCTC10788; test: Antimicrobial test (broth microdilution); format: cell-based, Staphylococcus aureus; conditions: for MIC: MHB, 5 × 10^5 CFU/ml, 37°C overnight, 550 nm
Protocol: as §1

[11] = test system: rat urinary bladder smooth muscle; test: Rat urinary bladder smooth muscle test; conditions: organ bath, 37°C, n = 5
Protocol: as §2

Molecule	haemolytic activity [1]	cytotoxicity to HMEC-1 cells [3]	MBC [5] [µM]	MIC [5] [µM]	MFC [6] [µM]	MIC [7] [µM]	membrane permeabilisation of E. coli at maximum tested concentration [2]	membrane lysis (LDH release) of HMEC-1 ([3]; relative to lysis buffer)	MBC [9] [µM]	MIC [9] [µM]	membrane-permeabilising activity on S. aureus [4]	MIC [6] [µM]	MBC [7] [µM]	MBC [10] [µM]	MIC [10] [µM]	further results
CC[C@H](C)[C@H](NC(=O)CN)C(=O)NCC(=O)N[C@@H](C)C(=O)N[C@H](C(=O)N[C@@H](CC(C)C)C(=O)N[C@@H](CCCCN)C(=O)N[C@H](C(=O)N[C@@H](CC(C)C)C(=O)N[C@H](C(=O)N[C@H](C(=O)NCC(=O)N[C@@H](CC(C)C)C(=O)N1CCC[C@H]1C(=O)N[C@@H](C)C(=O)N[C@@H](CC(C)C)C(=O)N[C@H](C(=O)N[C@@H](CO)C(=O)N[C@@H](Cc1c[nH]c2ccccc12)C(=O)N[C@H](C(=O)N[C@@H](CCCCN)C(=O)N[C@@H](CCCNC(=N)N)C(=O)N[C@@H](CCCCN)C(=O)N[C@@H](CCCNC(=N)N)C(=O)N[C@@H](CCC(N)=O)C(=O)N[C@@H](CCC(N)=O)C(N)=O)[C@@H](C)CC)[C@@H](C)CC)[C@@H](C)O)[C@@H](C)O)C(C)C)C(C)C [Melittin, reference compound]	eminent haemolysis from 1 μM	significant cytotoxicity	4	2	8	2	–	–	–	–	–	–	–	–	–	membrane permeabilisation of E. coli at MIC and MBC ([2]; 1 × 10^8 CFU/ml, PBS pH 7.4): higher absorbance at 420 nm; LDH release from HMEC-1 ([3]; 0.1 μM, relative to lysis buffer): approximately 10%; membrane permeability of S. aureus at MBC ([4]; peptide at its MBC, 37°C, 1 × 10^8 CFU/ml, relative to 70% isopropanol): 100%; membrane permeability of S. aureus at MIC ([4]; peptide at its MIC, 37°C, 1 × 10^8 CFU/ml, relative to 70% isopropanol): approximately 50%
N2H-GLLDSLLGGLGL-CONH2 [S5-Caeridin-1, novel Caeridin peptide from Litoria caerulea skin secretion, synthetic replicate, C-terminally amidated]	weak haemolytic activities	weak cytotoxicity	> 512	> 512	> 512	> 512	failed to induce membrane permeabilisation	lower than 5%	> 512	> 512	barely showed membrane-permeabilising activity	> 512	> 512	> 512	> 512	maximum relaxant effect on ileum smooth muscle preparations [8]: 0.2 g; EC50 ([8]; Kreb's solution, 10^−11 to 10^−6 M, read-out: EC50 causing rat ileum smooth muscle relaxations): 9.5 nM
RPPGFSPFR [Bradykinin, reference compound] [listing 1 of 2 here]	–	–	> 512	> 512	> 512	> 512	failed to induce membrane permeabilisation	–	> 512	> 512	barely showed membrane-permeabilising activity	> 512	> 512	> 512	> 512	–
GLLDGLLGTLGL-NH2 [Caeridin-1]	weak haemolytic activities	weak cytotoxicity	> 512	> 512	> 512	> 512	failed to induce membrane permeabilisation	lower than 5%	> 512	> 512	barely showed membrane-permeabilising activity	> 512	> 512	> 512	> 512	maximum contraction effect on bladder smooth muscle preparations [11]: 0.3 g; EC50 ([11]; Kreb's solution, 10^−11 to 10^−6 M, read-out: EC50 inducing rat bladder smooth muscle contractions): 5.6 nM
RPPGFSPFR [Bradykinin, reference compound] [listing 2 of 2 here]	weak haemolytic activities	weak cytotoxicity	–	–	–	–	–	lower than 5%	–	–	–	–	–	–	–	–
